What was measured:
[1] = Body weight loss (acute toxicity) in the WiDr tumor model; format: in vivo, nude mice; conditions: intravenous 5 consecutive days, body weight relative to Day 1
Source text: (§1) In order to study solid tumor growth inhibitory activities of the compounds of the formula (I) in vivo, WiDr human colon cancer cells were implanted subcutaneously into the flanks of nude mice. […]. The animals were grouped so that the average of the volumes of the respective groups became uniform, when it reached about 100 mm^3. Control group was made up of 10 mice and 11107D-administering groups were made up of 5 mice. The derivatives were administered for the administering groups for 5 consecutive days by intravenous injection so as to be any of 0.625 mg, 1.25 mg, 2.5 mg, 5 mg and 10 mg/kg/day, and a vehicle was administered to the control group. The tumor volumes on Day 15 were measured, and relative tumor volume ratios (T/C %) were determined setting the tumor volume of the control group as 100%. The body weights on Day 1, Day 5, Day 8, Day 12 and Day 15 (or 16) were measured, and relative body weight variations were determined setting the body weight on Day 1 as 100%. The relative body weight ratios on the day where the body weight reached the minimum were defined as the minimum relative weight ratios and are shown in Table 3.

[2] = tested on: WiDr human colon cancer cells; test: Growth inhibitory activities on WiDr human colon cancer cells (MTT); format: cell-based; conditions: 72 h, three days incubation
Procedure: WiDr human colon cancer cells cultured in DULBECCO-modified eagle medium (DMEM; manufactured by SIGMA Co., Ltd.) containing 10% fetal calf serum, penicillin (100 unit/mL) and streptomycin (100 μg/mL) were dispensed in 96-well plates by 2×10^3 cells/well. After culturing overnight in a CO2 incubator, 20 μL of the above-mentioned incubation solution containing the test compound diluted with 3-fold succession was added, followed by incubation. After three days, 50 μL of 3.3 mg/mL MTT solution was added, followed by culturing for further one hour. Then, formazan formed by the reduction by the action of living cells was extracted with 100 μL of DMSO, the absorbance (A540/A660) was determined and was set as the index of the number of living cells.
The concentrations of the compounds of the formula (I) at which the growth of WiDr human colon cancer cells are inhibited 50% were determined.

VEGF promoter = test: VEGF transcription-suppressing activity (VEGF promoter-PLAP reporter, U251/1-8 cells, hypoxia); format: cell-based; conditions: Homo sapiens, U-251, 18 h, read-out: VEGF transcription-suppressing activities (IC50: nM)
Source text: In order to prepare reporter system reflecting transcription from VEGF promoter, VEGF promoter sequence was cloned, and inserted in secretory alkaline phosphatase (PLAP) vector to construct reporter vector.
In order to obtain the promoter region of human VEGF, VEGF genomic DNA was cloned from phage library. PCR primers having the sequences described in Sequence Numbers 1 and 2 were designed based on VEGF cDNA (GenBank accession number: X62568) and a fragment having about 340 bp was obtained by carrying out PCR. Human genomic phage library (Human genomic library, Clontech Co.) was screened using this as a probe to obtain VEGF genomic DNA. The DNA was digested by EcoRI, and the resultant fragments were inserted in the EcoRI site of pUC18. Finally, pUC18-VEGFA containing about 5.4 kb of VEGF 5′ flanking region was obtained. The pUC18-VEGFA was digested by KpnI/NheI, VEGF promoter region of about 2.3 kb obtained was inserted in the multi cloning site KpnI/NheI of secretory alkaline phosphatase (PLAP) vector (Goto et al, Mol. Pharmacol., 49, 860-873, 1996), and thus, VEGF-PLAP vector was constructed.
The above-mentioned VEGF-PLAP vector was transfected in the U251 cell cultured in the DULBECCO-modified eagle medium (DMEM; manufactured by SIGMA Co., Ltd.) containing 10% fetal calf serum, and the cells were cultured in the presence of 1 mg/mL G418 (Merck Co.) to establish G418 resistant stable clone (U251/1-8 cell).
It was confirmed that U251/1-8 cell secreted PLAP under hypoxic condition (2% O2 incubator) in the same manner as in the report (Cell. Mol. Biol. Res. 40, 35-39, 1994) and was a reporter system reflecting the transcription from VEGF promoter. The screening of the compound suppressing VEGF production which was induced by hypoxic stimulation was carried out below using the clone.
In order to remove the influence of alkaline phosphates in serum, U251/1-8 cells were rinsed twice with the adequate amount of PBS (Phosphate buffered saline), diluted in the DMEM medium containing 10% of serum in which alkaline phosphates was inactivated by the treatment of 65° C. for 20 min., and dispensed in 96-well plates by 4×10^4 cells/180 μL.
After culturing at 37° C. overnight in a CO2 incubator (5% CO2), 20 μL of the above-mentioned incubation solution containing the test compound diluted with 3-fold succession was added, and then they were incubated in a hypoxic (2% […]) incubator for 18 hours. With respect to the PLAP activity in the culture supernatants, 10 μL of the supernatants was added to 50 μL of 0.28 M Na2CO3—NaHCO3 buffer solution (pH 10.0, 8.0 mM MgSO4), and finally 50 μL of alkaline phosphatase substrate (LUMISTEIN, Genomescience Co.) was added. After reacting for one hour, the alkaline phosphatase activity of the PLAP was measured by detecting the chemical luminescence by a micro plate reader (Perkin-Elmer Co.). The PLAP activity under normoxia was set as 0%, the PLAP activity of cell which was treated under hypoxia was set as 100%, and the concentration suppressing the PLAP activity by 50% was set as the IC50 value of PLAP. The IC50 values of 11107D derivatives shown in Examples were measured, and the IC50 values of representative 11107D derivatives are shown in Table 1.

[3] = Stability in an aqueous solution (HPLC residual ratio); conditions: for Peak area (mAU × sec) after 24 hours / The residual ratios (%): Britton-Robinson's buffer pH 7, 25° C., 24 hours; for Peak area (mAU × sec) initial: Britton-Robinson's buffer pH 7, before incubation
Procedure: The compounds of the formula (I) were dissolved in DMSO in concentrations of 10 to 20 mM, and these were diluted about 500 folds with Britton-Robinson's buffer solution of pH 7. Each of the solutions as sample solutions was incubated at 25° C. for 24 hours.
The sample solutions were analyzed by high performance liquid chromatography before and after incubation, and the residual ratios of the tested substances in the sample solutions after incubation were determined from the peak areas of the obtained chromatograms.

[4] = tested on: WiDr human colon cancer cells; test: Solid tumor growth inhibitory activities, WiDr human colon tumor model in nude mice; format: in vivo; conditions: Mus musculus, iv, 360 h, read-out: Growth inhibitory activities in the WiDr human solid tumor model (T/C %)
Source text: as §1

CCC(O)C(C)C1OC1CC(C)(O)/C=C/C=C(\C)C1OC(=O)CC(O)CCC(C)(O)C(OC(=O)N(C)CCN(CC)CC)/C=C/C1C (stereo not shown) [Compound 75, (8E,12E,14E)-7-(N-(2-(N′,N′-Diethylamino)ethyl)-N-methylcarbamoyloxy)-3,6,16,21-tetrahydroxy-6,10,12,16,20-pentamethyl-18,19-epoxytricosa-8,12,14-trien-11-olide]
the minimum relative weight ratios ([1]; Dose 5.0 mg/kg): 0.82 | IC50 [2]: 4.1 nM | IC50 (VEGF promoter): 9.1 nM | Peak area (mAU × sec) after 24 hours [3]: 2478 mAU × sec | The residual ratios (%) [3]: 95.5% | Peak area (mAU × sec) initial [3]: 2594 mAU × sec | response vs control in vivo at 5 mg/kg [4]: 17%

CCC(O)C(C)C1OC1CC(C)(O)/C=C/C=C(\C)C1OC(=O)CC(O)CCC(C)(OC)C(OC(=O)N2CCC(N3CCCCC3)CC2)/C=C/C1C (stereo not shown) [Compound 109, (8E,12E,14E)-3,16,21-Trihydroxy-6-methoxy-6,10,12,16,20-pentamethyl-7-((4-(piperidin-1-yl)piperidin-1-yl)carbonyl)oxy-18,19-epoxytricosa-8,12,14-trien-11-olide]
the minimum relative weight ratios ([1]; Dose 0.625 mg/kg): 0.89 | IC50 [2]: 1.5 nM | IC50 (VEGF promoter): 3.3 nM | Peak area (mAU × sec) after 24 hours [3]: 2111 mAU × sec | The residual ratios (%) [3]: 94.9% | Peak area (mAU × sec) initial [3]: 2224 mAU × sec | response vs control in vivo at 0.625 mg/kg [4]: 36%

CCC(OC)C(C)C1OC1CC(C)(O)/C=C/C=C(\C)C1OC(=O)CC(O)CCC(C)(O)C(OC(=O)N2CCN(C)CC2)/C=C/C1C (stereo not shown) [Compound 131, (8E,12E,14E)-3,6,16-Trihydroxy-21-methoxy-6,10,12,16,20-pentamethyl-7-((4-methylpiperazin-1-yl)carbonyl)oxy-18,19-epoxytricosa-8,12,14-trien-11-olide]
the minimum relative weight ratios ([1]; Dose 2.5 mg/kg): 0.83 | IC50 [2]: 0.7 nM | IC50 (VEGF promoter): 1.7 nM | Peak area (mAU × sec) after 24 hours [3]: 157 mAU × sec | The residual ratios (%) [3]: 93.2% | Peak area (mAU × sec) initial [3]: 168 mAU × sec | response vs control in vivo at 2.5 mg/kg [4]: 28%

CCC(O)C(C)C1OC1CC(C)(O)/C=C/C=C(\C)C1OC(=O)CC(O)CCC(C)(O)C(OC(=O)N2CCCN(C)CC2)/C=C/C1C (stereo not shown) [Compound 9, (8E,12E,14E)-3,6,16,21-Tetrahydroxy-6,10,12,16,20-pentamethyl-7-((4-methylhomopiperazin-1-yl)carbonyl)oxy-18,19-epoxytricosa-8,12,14-trien-11-olide]
the minimum relative weight ratios ([1]; Dose 5.0 mg/kg): 0.86 | IC50 [2]: 5.5 nM | IC50 (VEGF promoter): 12.9 nM | Peak area (mAU × sec) after 24 hours [3]: 5476 mAU × sec | The residual ratios (%) [3]: 96.2% | Peak area (mAU × sec) initial [3]: 5690 mAU × sec | response vs control in vivo at 5 mg/kg [4]: 10%

CCC(O)C(C)C1OC1CC(C)(O)/C=C/C=C(\C)C1OC(=O)CC(O)CCC(C)(O)C(OC(=O)N2CCN(CC)CC2)/C=C/C1C (stereo not shown) [Compound 21, (8E,12E,14E)-7-((4-Ethylpiperazin-1-yl)carbonyl)oxy-3,6,16,21-tetrahydroxy-6,10,12,16,20-pentamethyl-18,19-epoxytricosa-8,12,14-trien-11-olide]
the minimum relative weight ratios ([1]; Dose 2.5 mg/kg): 0.80 | IC50 [2]: 3.2 nM | IC50 (VEGF promoter): 6.1 nM | response vs control in vivo at 2.5 mg/kg [4]: 28%

CCC(O)C(C)C1OC1CC(C)(O)/C=C/C=C(\C)C1OC(=O)CC(O)CCC(C)(O)C(OC(=O)N2CCC(N3CCCCC3)CC2)/C=C/C1C (stereo not shown) [Compound 22, (8E,12E,14E)-3,6,16,21-Tetrahydroxy-6,10,12,16,20-pentamethyl-7-((4-(piperidin-1-yl)piperidin-1-yl)carbonyl)oxy-18,19-epoxytricosa-8,12,14-trien-11-olide]
the minimum relative weight ratios ([1]; Dose 5.0 mg/kg): 0.74 | IC50 [2]: 14.6 nM | IC50 (VEGF promoter): 25.6 nM | Peak area (mAU × sec) after 24 hours [3]: 4514 mAU × sec | The residual ratios (%) [3]: 95.8% | Peak area (mAU × sec) initial [3]: 4713 mAU × sec | response vs control in vivo at 5 mg/kg [4]: 39%

CCC(O)C(C)C1OC1CC(C)(O)/C=C/C=C(\C)C1OC(=O)CC(O)CCC(C)(O)C(OC(=O)N(C)CCN(C)C)/C=C/C1C (stereo not shown) [Compound 6, (8E,12E,14E)-7-(N-(2-(N′,N′-Dimethylamino)ethyl)-N-methylcarbamoyloxy)-3,6,16,21-tetrahydroxy-6,10,12,16,20-pentamethyl-18,19-epoxytricosa-8,12,14-trien-11-olide]
the minimum relative weight ratios ([1]; Dose 1.25 mg/kg): 0.81 | IC50 [2]: 12.5 nM | IC50 (VEGF promoter): 32 nM | response vs control in vivo at 1.25 mg/kg [4]: 35%

CCCCN1CCN(C(=O)OC2/C=C/C(C)C(/C(C)=C/C=C/C(C)(O)CC3OC3C(C)C(O)CC)OC(=O)CC(O)CCC2(C)O)CC1 (stereo not shown) [Compound 16, (8E,12E,14E)-7-((4-Butylpiperazin-1-yl)carbonyl)oxy-3,6,16,21-tetrahydroxy-6,10,12,16,20-pentamethyl-18,19-epoxytricosa-8,12,14-trien-11-olide]
the minimum relative weight ratios ([1]; Dose 2.5 mg/kg): 0.90 | IC50 [2]: 2 nM | IC50 (VEGF promoter): 3.1 nM | response vs control in vivo at 2.5 mg/kg [4]: 28%

CCC(O)C(C)C1OC1CC(C)(O)/C=C/C=C(\C)C1OC(=O)CC(O)CCC(C)(O)C(OC(=O)N2CCN(C3CCCCC3)CC2)/C=C/C1C (stereo not shown) [Compound 26, (8E,12E,14E)-7-((4-Cyclohexylpiperazin-1-yl)carbonyl)oxy-3,6,16,21-tetrahydroxy-6,10,12,16,20-pentamethyl-18,19-epoxytricosa-8,12,14-trien-11-olide]
the minimum relative weight ratios ([1]; Dose 2.5 mg/kg): 0.93 | IC50 [2]: 1.6 nM | IC50 (VEGF promoter): 2.8 nM | response vs control in vivo at 2.5 mg/kg [4]: 42%

CCC(O)C(C)C1OC1CC(C)(O)/C=C/C=C(\C)C1OC(=O)CC(O)CCC(C)(O)C(OC(=O)N2CCN(C(C)C)CC2)/C=C/C1C (stereo not shown) [Compound 44, (8E,12E,14E)-3,6,16,21-Tetrahydroxy-7-((4-isopropylpiperazin-1-yl)carbonyl)oxy-6,10,12,16,20-pentamethyl-18,19-epoxytricosa-8,12,14-trien-11-olide]
the minimum relative weight ratios ([1]; Dose 5.0 mg/kg): 0.89 | IC50 [2]: 2.1 nM | IC50 (VEGF promoter): 3.9 nM | Peak area (mAU × sec) after 24 hours [3]: 3820 mAU × sec | The residual ratios (%) [3]: 94.8% | Peak area (mAU × sec) initial [3]: 4031 mAU × sec | response vs control in vivo at 5 mg/kg [4]: 19%
